Data from patent publication US20250215029A1 (Recludix Pharma, Inc., priority 2022, published 2025).

Biological target: T1, pY705-STAT3 in PBMC (Homo sapiens, UniProt P40763)
T1 construct: Cryopreserved Peripheral Blood Mononuclear Cells (PBMC) are from AllCells; host or cells: cryopreserved PBMC
Experiment: MSD-pSTAT-PBMC Assay (pSTAT3, IL-6 stimulated)
Type: cell-based
Conditions: PBMC, compound 3 hrs, then 10 ng/mL IL-6 for 10 min; Table 115; read-out: STAT3
Text: Cryopreserved Peripheral Blood Mononuclear Cells (PBMC) are from AllCells. Recombinant Human IL-4 and IL-6 are from Peprotech. Mouse monoclonal anti-STAT3 antibody, rabbit monoclonal anti-pY705-STAT3 antibody, rabbit monoclonal Anti-pY641-STAT6 antibody, and lysis buffer are from Cell Signaling Technology (CST). Mouse monoclonal anti-STAT6 antibody is from BioLegend. Assay plates, blocker, and anti-rabbit secondary antibody are from Meso Scale Discovery (MSD).
Cyropreserved PBMCs were thawed out and allowed to recover overnight in IMDM+10% heat-inactivated FBS prior to plating 50,000 (STAT3) or 25,000 (STAT6) cells per well in 96-well U-bottom tissue culture plates. Cells were treated with compound for 3 hrs, then stimulated with 10 ng/mL IL-6 (STAT3) or 1 ng/mL IL-4 (STAT6) for 10 min. Cells were then spun down and washed with ice-cold PBS prior to lysing the cell pellet with 1× lysis buffer (CST) with 1× HALT protease and phosphatase inhibitor cocktail (Thermo). Lysates were transferred to and incubated overnight at 4° C. with shaking in QuickPlex 96-well high bind assay plates (MSD) pre-coated overnight with 30 μL per well of 0.6 μg/mL mouse monoclonal anti-STAT3 antibody (STAT3) or 2 μg/mL mouse monoclonal anti-STAT6 antibody (STAT6) in 1× PBS, and pre-blocked for 1 hour with 3% Blocker-A (MSD). Captured protein in the assay plates were then washed and probed with 25 μL per well of […] rabbit monoclonal anti-pY705-STAT3 antibody (STAT3) or 0.18 μg/ml rabbit monoclonal Anti-pY641-STAT6 antibody (STAT6) in 1% Blocker-A for 1 hour at room temperature with shaking, then washed and probed with 25 ul per well of 1 ug/ml Sulfo-TAG Labeled Goat Anti-Rabbit Antibody (MSD) in 1% Blocker-A for 1 hour at room temperature with shaking. Assay plates were then washed and 150 μL of 1× Read Buffer-T (MSD) was added to each well prior to reading on an SQ120 MSD Plate Reader. Assay signal from each sample was subtracted by the signal from unstimulated control wells and normalized to DMSO control wells. IC50 values were calculated using Graph Pad Prism Dose-Response Nonlinear Regression with variable slope. For both pSTAT3 and pSTAT6 A=≤100 nM; B 100-1000 nM; C=>1000-3000 nM; D=>3 μM; and NT=Not Tested.

T1 sequence (P40763 whole entry): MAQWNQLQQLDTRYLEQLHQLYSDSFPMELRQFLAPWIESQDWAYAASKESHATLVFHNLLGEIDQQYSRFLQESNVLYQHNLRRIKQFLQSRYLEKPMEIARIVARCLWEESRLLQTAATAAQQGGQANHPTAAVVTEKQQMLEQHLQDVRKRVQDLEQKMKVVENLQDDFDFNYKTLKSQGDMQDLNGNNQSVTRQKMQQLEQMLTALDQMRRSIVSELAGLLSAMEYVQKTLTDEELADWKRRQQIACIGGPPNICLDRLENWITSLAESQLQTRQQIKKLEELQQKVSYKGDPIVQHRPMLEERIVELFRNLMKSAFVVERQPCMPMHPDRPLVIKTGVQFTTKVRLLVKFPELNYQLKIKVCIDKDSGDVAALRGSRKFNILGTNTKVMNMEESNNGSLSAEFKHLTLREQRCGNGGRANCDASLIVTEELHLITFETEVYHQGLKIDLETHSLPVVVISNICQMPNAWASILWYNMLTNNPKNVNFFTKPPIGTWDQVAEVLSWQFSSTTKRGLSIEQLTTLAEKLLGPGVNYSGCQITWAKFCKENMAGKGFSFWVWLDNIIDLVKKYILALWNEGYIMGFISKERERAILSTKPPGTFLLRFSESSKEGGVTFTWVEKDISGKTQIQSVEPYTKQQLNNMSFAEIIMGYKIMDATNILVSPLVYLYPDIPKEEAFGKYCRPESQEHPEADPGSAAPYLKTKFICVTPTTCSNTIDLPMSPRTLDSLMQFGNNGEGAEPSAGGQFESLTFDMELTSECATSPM

Compound	IC50 [nM]
COc1ccncc1C1CN(C(=O)[C@@H]2CC[C@@H]3CCC[C@H](NC(=O)c4cc5cc([C@H](F)[P@@](=O)(N[C@@H](C)C(=O)OCc6ccccc6)Oc6ccccc6)ccc5s4)C(=O)N32)C1 (single isomer, unassigned) [Compound 1051]	100 to 1000
COc1ccncc1C1CN(C(=O)[C@@H]2CC[C@@H]3CCC[C@H](NC(=O)c4cc5cc([C@H](F)[P@@](=O)(N[C@@H](C)C(=O)OC(C)C)Oc6ccccc6)ccc5s4)C(=O)N32)C1 (single isomer, unassigned) [Compound 1052]	100 to 1000
COc1ccncc1C1CN(C(=O)[C@@H]2CC[C@@H]3CCC[C@H](NC(=O)c4cc5cc([C@@H](F)[P@@](=O)(N[C@@H](C)C(=O)OC(C)C)Oc6ccccc6)ccc5s4)C(=O)N32)C1 (single isomer, unassigned) [Compound 1053]	< 100
COc1ccncc1C1CN(C(=O)[C@@H]2CC[C@@H]3CCC[C@H](NC(=O)c4cc5cc([C@@H](F)[P@](=O)(N[C@@H](C)C(=O)OCc6ccccc6)Oc6ccccc6)ccc5s4)C(=O)N32)C1 (single isomer, unassigned) [Compound 1054]	< 100
COc1ccncc1C1CN(C(=O)[C@@H]2CC[C@@H]3CCC[C@H](NC(=O)c4cc5cc([C@@H](F)[P@](=O)(N[C@@H](C)C(=O)OCC(C)(C)C)Oc6ccccc6)ccc5s4)C(=O)N32)C1 (single isomer, unassigned) [Compound 1056]	< 100
COc1ccncc1C1CN(C(=O)[C@@H]2CC[C@@H]3CCC[C@H](NC(=O)c4cc5cc([C@@H](F)[P@](=O)(N[C@@H](C)C(=O)OCC(C)(C)C)Oc6ccccc6)ccc5s4)C(=O)N32)C1 (single isomer, unassigned) [Compound 1057]	< 100
CCCOC(=O)[C@H](C)N[P@](=O)(Oc1ccccc1)[C@@H](F)c1ccc2sc(C(=O)N[C@H]3C[C@@H](C)C[C@H]4CC[C@@H](C(=O)N5CC(c6cnccc6OC)C5)N4C3=O)cc2c1 (single isomer, unassigned) [Compound 1058]	< 100
CCCOC(=O)[C@H](C)N[P@](=O)(Oc1ccccc1)[C@@H](F)c1ccc2sc(C(=O)N[C@H]3C[C@@H](C)C[C@H]4CC[C@@H](C(=O)N5CC(c6cnccc6OC)C5)N4C3=O)cc2c1 (single isomer, unassigned) [Compound 1059]	< 100
CCCOC(=O)[C@H](C)N[P@](=O)(Oc1ccccc1)[C@H](F)c1ccc2sc(C(=O)N[C@H]3CCC[C@H]4CC[C@@H](C(=O)N5CC(c6cnccc6N(C)C)C5)N4C3=O)cc2c1 (stereo in doubt) [Compound 953]	< 100
CC(C)OC(=O)[C@H](C)NP(=O)(Oc1ccccc1)C(F)(F)c1ccc2sc(C(=O)N[C@H]3CCC[C@H]4CC[C@@H](C(=O)N5CC(c6cccnc6)C5)N4C3=O)cc2c1 (stereo partly drawn) [Compound 248, isopropyl ((difluoro(2-(((3S,6S,9aS)-5-oxo-3-(3-(pyridin-3-yl)azetidine-1-carbonyl)octahydro-1H-pyrrolo[1,2-a]azepin-6-yl)carbamoyl)benzo [b]thiophen-5-yl)methyl)(phenoxy)phosphoryl)-L-alaninate]	> 3000
CCCOC(=O)[C@H](C)NP(=O)(Cc1ccc2sc(C(=O)N[C@H]3CCC[C@H]4CC[C@@H](C(=O)N5CC(c6cccnc6)C5)N4C3=O)cc2c1)Oc1ccccc1 (stereo partly drawn) [Compound 250, propyl (((2-(((3S,6S,9aS)-5-oxo-3-(3-(pyridin-3-yl)azetidine-1-carbonyl)octahydro-1H-pyrrolo[1,2-a]azepin-6-yl)carbamoyl)benzo [b]thiophen-5-yl)methyl)(phenoxy)phosphoryl)-L-alaninate]	< 100
CCCOC(=O)[C@H](C)NP(=O)(Cc1ccc2sc(C(=O)N[C@H]3CC(C)C[C@H]4CC[C@@H](C(=O)N5CC(c6cnccc6C)C5)N4C3=O)cc2c1)Oc1ccccc1 (stereo partly drawn) [Compound 251, propyl (((2-(((3S,6S,9aR)-8-methyl-3-(3-(4-methylpyridin-3-yl)azetidine-1-carbonyl)-5-oxooctahydro-1H-pyrrolo[1,2-a]azepin-6-yl)carbamoyl)benzo [b]thiophen-5-yl)methyl)(phenoxy)phosphoryl)-L-alaninate]	< 100
CCCCOC(=O)[C@H](C)NP(=O)(Oc1ccccc1)C(F)(F)c1ccc2sc(C(=O)N[C@H]3CCC[C@H]4CC[C@@H](C(=O)N5CC(c6cccnc6)C5)N4C3=O)cc2c1 (stereo partly drawn) [Compound 254, butyl ((difluoro(2-(((3S,6S,9aS)-5-oxo-3-(3-(pyridin-3-yl)azetidine-1-carbonyl)octahydro-1H-pyrrolo[1,2-a]azepin-6-yl)carbamoyl)benzo [b]thiophen-5-yl)methyl)(phenoxy)phosphoryl)-L-alaninate]	100 to 1000
C[C@H](NP(=O)(Cc1ccc2sc(C(=O)N[C@H]3CCC[C@H]4CC[C@@H](C(=O)N5CC(c6cccnc6)C5)N4C3=O)cc2c1)Oc1ccccc1)C(=O)OCC(C)(C)C (stereo partly drawn) [Compound 256, neopentyl (((2-(((3S,6S,9aS)-5-oxo-3-(3-(pyridin-3-yl)azetidine-1-carbonyl)octahydro-1H-pyrrolo[1,2-a]azepin-6-yl)carbamoyl)benzo [b]thiophen-5-yl)methyl)(phenoxy)phosphoryl)-L-alaninate]	< 100
CCCOC(=O)[C@H](C)NP(=O)(Cc1ccc2sc(C(=O)N[C@H]3CCC[C@H]4CC[C@@H](C(=O)N5CC(c6cnccc6CC)C5)N4C3=O)cc2c1)Oc1ccccc1 (stereo partly drawn) [Compound 257, propyl (((2-(((3S,6S,9aS)-3-(3-(4-ethylpyridin-3-yl)azetidine-1-carbonyl)-5-oxooctahydro-1H-pyrrolo[1,2-a]azepin-6-yl)carbamoyl)benzo [b]thiophen-5-yl)methyl)(phenoxy)phosphoryl)-L-alaninate]	< 100
CCC(CC)COC(=O)[C@H](C)NP(=O)(Cc1ccc2sc(C(=O)N[C@H]3CCC[C@H]4CC[C@@H](C(=O)N5CC(c6cccnc6)C5)N4C3=O)cc2c1)Oc1ccccc1 (stereo partly drawn) [Compound 258, 2-ethylbutyl (((2-(((3S,6S,9aS)-5-oxo-3-(3-(pyridin-3-yl)azetidine-1-carbonyl)octahydro-1H-pyrrolo[1,2-a]azepin-6-yl)carbamoyl)benzo [b]thiophen-5-yl)methyl)(phenoxy)phosphoryl)-L-alaninate]	< 100
CC(C)COC(=O)[C@H](C)NP(=O)(Cc1ccc2sc(C(=O)N[C@H]3CCC[C@H]4CC[C@@H](C(=O)N5CC(c6cccnc6)C5)N4C3=O)cc2c1)Oc1ccccc1 (stereo partly drawn) [Compound 259, isobutyl (((2-(((3S,6S,9aS)-5-oxo-3-(3-(pyridin-3-yl)azetidine-1-carbonyl)octahydro-1H-pyrrolo[1,2-a]azepin-6-yl)carbamoyl)benzo [b]thiophen-5-yl)methyl)(phenoxy)phosphoryl)-L-alaninate]	< 100
CCCOC(=O)[C@H](C)NP(=O)(Cc1ccc2sc(C(=O)N[C@H]3CCC[C@H]4CC[C@@H](C(=O)N5CC(c6cncnc6C)C5)N4C3=O)cc2c1)Oc1ccccc1 (stereo partly drawn) [Compound 260, propyl (((2-(((3S,6S,9aS)-3-(3-(4-methylpyrimidin-5-yl)azetidine-1-carbonyl)-5-oxooctahydro-1H-pyrrolo[1,2-a]azepin-6-yl)carbamoyl)benzo [b]thiophen-5-yl)methyl)(phenoxy)phosphoryl)-L-alaninate]	1000 to 3000
